In this test the target is T1, Axl (Homo sapiens, UniProt P30530).
T1 construct: endogenous in cells; host or cells: HeLa cells
T1 sequence (P30530 26-894): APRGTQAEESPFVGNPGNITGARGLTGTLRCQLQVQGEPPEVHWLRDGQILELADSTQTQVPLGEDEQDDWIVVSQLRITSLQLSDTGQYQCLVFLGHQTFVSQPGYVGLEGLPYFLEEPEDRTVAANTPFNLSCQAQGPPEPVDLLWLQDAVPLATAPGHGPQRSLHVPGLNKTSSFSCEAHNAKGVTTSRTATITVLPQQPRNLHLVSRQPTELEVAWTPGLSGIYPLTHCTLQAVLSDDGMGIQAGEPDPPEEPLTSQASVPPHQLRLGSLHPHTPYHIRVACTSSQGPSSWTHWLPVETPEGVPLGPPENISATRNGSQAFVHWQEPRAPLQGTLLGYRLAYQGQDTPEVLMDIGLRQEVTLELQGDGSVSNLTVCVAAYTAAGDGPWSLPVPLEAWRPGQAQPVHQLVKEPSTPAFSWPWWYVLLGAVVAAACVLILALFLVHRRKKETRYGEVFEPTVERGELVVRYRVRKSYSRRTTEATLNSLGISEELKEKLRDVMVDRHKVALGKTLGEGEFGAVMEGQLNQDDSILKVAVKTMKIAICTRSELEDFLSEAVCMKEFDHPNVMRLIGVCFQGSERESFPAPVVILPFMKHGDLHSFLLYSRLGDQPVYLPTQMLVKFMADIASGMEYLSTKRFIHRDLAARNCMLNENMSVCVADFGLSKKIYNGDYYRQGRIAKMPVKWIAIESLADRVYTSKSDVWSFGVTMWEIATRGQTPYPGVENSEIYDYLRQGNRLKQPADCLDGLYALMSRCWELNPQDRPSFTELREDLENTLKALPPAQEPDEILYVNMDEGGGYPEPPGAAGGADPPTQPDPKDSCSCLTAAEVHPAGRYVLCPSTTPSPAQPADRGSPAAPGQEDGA
In words: Phospho-Akt in-cell Western assay (inhibition of Axl activity). Type of test: cell-based. In a few lines:
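HeLa cells on poly-L-lysine, starved 24 h in 0.5% FCS DMEM with Axl/Fc 500 ng/mL, pre-treated with compound 1 h at 37° C. Axl stimulated 5 min by anti-Axl/anti-mouse antibody cross-linking. Fixed cells probed with anti-phospho-Akt and HRP secondary, chemiluminescence read.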

Where [1] appears, read: inhibition of Axl activity, phospho-Akt in-cell Western assay, Table 1.
[2] abbreviates: inhibition of Axl activity, Table 1.
The mark [3] stands for this setting: Table 5, Hela cells, Axl antibody cross-linking stimulation, phospho-Akt chemiluminescence.
[4] abbreviates: Table 3, Hela cells, Axl antibody cross-linking stimulation, phospho-Akt chemiluminescence.
The mark [5] stands for this setting: Table 2, Hela cells, Axl antibody cross-linking stimulation, phospho-Akt chemiluminescence.
[6] abbreviates: Table 7, Hela cells, Axl antibody cross-linking stimulation, phospho-Akt chemiluminescence.

The results in this text go back to patent US8389557B2, “Triazole derivatives useful as Axl inhibitors” (Rigel Pharmaceuticals, Inc., priority 2005, dated 2013).

By IC50 is commonly meant the concentration at which inhibition is half-maximal.

With `CN(C)c1cccc(C(=O)n2nc(Nc3ccc(OCCCN4CCCC4)cc3)nc2N)c1` [compound #20, 5-Amino-1-(3-(dimethylamino)phenyl)carbonyl-3-[4-[3-(pyrrolidin-1-yl)propoxy]phenylamino]-1H-1,2,4-triazole], under setting [1], the IC50 is below 1 µM. In turn, `Cc1ccc(C(=O)n2nc(Nc3ccc(OCCN4CCCCC4)cc3)nc2N)cc1` [compound 53, 5-amino-1-(4-(methyl)phenyl)carbonyl-3-[4-[2-(piperidin-1-yl)ethoxy]phenylamino]-1H-1,2,4-triazole] had an IC50 under setting [2] below 1 µM.

Under setting [3], `CC(C)(C)OC(=O)NC1CCOc2ccc(Nc3nc(N)n(C(=O)c4ccc(C(C)(C)C)cc4)n3)cc21` (stereo not drawn) [compound 273] yielded an IC50 above 20 µM. Under setting [4], `Nc1nc(Nc2ccc(OCCN3CCOCC3)cc2)nn1C(=O)c1ccc2cc[nH]c2c1` [compound 265, 5-amino-1-(1H-indol-6-yl)carbonyl-3-[4-[2-(morpholin-4-yl)ethoxy]phenylamino]-1H-1,2,4-triazole] gave an IC50 below 1 µM. On to `COC(=O)n1nc(N)nc1Nc1ccc2c(c1)OCCO2` [compound 93, 3-amino-5-(1,4-benzodioxan-6-yl)amino-1-methoxycarbonyl-1H-1,2,4-triazole], for which the IC50 (Table 8, Hela cells, Axl antibody cross-linking stimulation, phospho-Akt chemiluminescence) was above 20 µM. In turn, `COc1cccc(C(=O)n2nc(Nc3ccc(OCCN4CCCC4)cc3)nc2N)c1` [compound #14, 5-Amino-1-(3-methoxyphenyl)carbonyl-3-[4-[2-(pyrrolidin-1-yl)ethoxy]phenylamino]-1H-1,2,4-triazole] returned an IC50 under setting [1] below 1 µM. Regarding `COc1cc(Nc2nc(N)n(C(=O)c3ccc4cc[nH]c4c3)n2)ccc1OCCN1CCCC1` [compound 318, 5-amino-1-(1H-indol-6-yl)carbonyl-3-[3-methoxy-4-[2-(pyrrolidin-1-yl)ethoxy]phenylamino]-1H-1,2,4-triazole], the IC50 under setting [4] is below 1 µM. Consider `COC(=O)COc1ccc(C(=O)n2nc(Nc3ccc4c(c3)OCCO4)nc2N)cc1` [compound 126, 5-amino-3-(1,4-benzodioxan-6-yl)amino-1-[4-(methoxycarbonylmethoxy)phenyl)carbonyl-1H-1,2,4-triazole], for which the IC50 under setting [2] fell in the range of 1 to 10 µM.

`CC(C)Oc1cccc(C(=O)n2nc(Nc3ccc4c(c3)OCCO4)nc2N)c1` [compound 112, 5-amino-3-(1,4-benzodioxan-6-yl)amino-1-(3-(iso-propoxy)phenyl)carbonyl-1H-1,2,4-triazole]: the IC50 under setting [2] fell in the range of 1 to 10 µM. For `CS(=O)(=O)N1CCC(Nc2nc(N)n(C(=O)c3ccc4c(c3)OCCO4)n2)CC1` [compound 397, 5-amino-1-(1,4-benzodioxan-6-yl)carbonyl-3-(1-methylsulfonylpiperidin-4-yl)amino-1H-1,2,4-triazole], the IC50 (Table 9, Hela cells, Axl antibody cross-linking stimulation, phospho-Akt chemiluminescence) was above 20 µM.

`Nc1nc(Nc2ccc(OCCn3ccnc3)cc2)nn1C(=O)c1ccc2sccc2c1` [compound 377, 5-amino-1-(benzo[b]thiophen-5-yl)carbonyl-3-[4-[2-(imidazol-1-yl)ethoxy]phenylamino]-1H-1,2,4-triazole] showed an IC50 under setting [4] below 1 µM. The compound `CC(C)Oc1ccc(C(=O)n2nc(Nc3ccc(OCCN4CCCCCC4)cc3)nc2N)cc1` [compound 321, 5-amino-1-(4-(iso-propoxy)phenyl)carbonyl-3-[4-[2-(azepan-1-yl)ethoxy]phenylamino]-1H-1,2,4-triazole] had a concentration for half-maximal inhibition (IC50) under setting [1] below 1 µM. As to `CC(C)(C)Oc1ccc(C(=O)n2nc(Nc3ccc(N4CCOCC4)cc3)nc2N)cc1` [compound 57, 5-amino-3-(4-(morpholin-4-yl)phenylamino)-1-(4-(tert-butoxy)phenyl)carbonyl-1H-1,2,4-triazole], under setting [2], the IC50 is below 1 µM.

In turn, `Cc1ccc(C(=O)n2nc(Nc3ccc(F)cc3)nc2N)cc1` [compound 123, 5-amino-3-[4-(fluoro)phenylamino]-1-(4-(methyl)phenyl)carbonyl-1H-1,2,4-triazole] yielded an IC50 under setting [2] of 10 to 20 µM. The compound `CC(C)Oc1ccc(C(=O)n2nc(Nc3cccc(OC4CCCC4)c3)nc2N)cc1` [compound 116, 5-amino-3-[3-(cyclopentoxy)phenylamino]-1-(4-(iso-propoxy)phenyl)carbonyl-1H-1,2,4-triazole] came in with an IC50 under setting [2] above 20 µM. `Nc1nc(Nc2ccc(OCCN3CCCC3)cc2)nn1C(=O)c1ccc(-c2csnn2)cc1` [compound 280, 5-amino-1-(4-(1,2,3-thiadiazol-4-yl)phenyl)carbonyl-3-[4-[2-(pyrrolidin-1-yl)ethoxy]phenylamino]-1H-1,2,4-triazole] yielded an IC50 under setting [1] below 1 µM.

For the compound `Nc1nc(Nc2ccc(OCCN3CCCC3)cc2)nn1C(=O)c1ccc2ncccc2c1` [compound 288, 5-amino-1-(quinolin-6-yl)carbonyl-3-[4-[2-(pyrrolidin-1-yl)ethoxy]phenylamino]-1H-1,2,4-triazole], the half-maximal inhibitory concentration (IC50) under setting [4] is below 1 µM. Under setting [5], `CC(C)Oc1ccc(C(=O)n2nc(N)nc2Nc2ccc(N3CCCCC3)cc2)cc1` [compound 192, 3-amino-1-(4-(iso-propoxy)phenyl)carbonyl-5-[4-(piperidin-1-yl)phenylamino]-1H-1,2,4-triazole] had an IC50 of 10 to 20 µM. `Nc1nc(Nc2ccc(OCCN3CCCC3)cc2)nn1C(=O)c1ccc(-n2ccnc2)cc1` [compound 268, 5-amino-1-(4-(imidazol-1-yl)phenyl)carbonyl-3-[4-[2-(pyrrolidin-1-yl)ethoxy]phenylamino]-1H-1,2,4-triazole] registered an IC50 under setting [1] below 1 µM. Turning to `CCCCOc1ccc(NC(=O)n2nc(Nc3ccc(N(C)C(C)=O)cc3)nc2N)cc1` [compound 180, 3-[4-(acetyl(methyl)amino)phenyl]amino-5-amino-N-(4-(butoxy)phenyl)-1H-1,2,4-triazole-1-carboxamide], the IC50 under setting [6] was in the range of 1 to 10 µM.

As to `Cc1cccc(C(=O)n2nc(Nc3cccc(OCC(=O)OC(C)(C)C)c3)nc2N)c1` [compound 221, 5-amino-1-(3-methylphenyl)carbonyl-3-[(3-tert-butoxycarbonylmethoxy)phenyl]amino-1H-1,2,4-triazole], under setting [2], the concentration for half-maximal inhibition (IC50) fell in the range of 1 to 10 µM. Regarding `CN(C)c1ccc(NC(=O)n2nc(Nc3ccc(OCCN4CCCCC4)cc3)nc2N)cc1` [compound 44, 5-amino-N-(4-(dimethylamino)phenyl)-3-[4-[2-(piperidin-1-yl)ethoxy]phenylamino]-1H-1,2,4-triazole-1-carboxamide], the IC50 under setting [6] lay within 1 to 10 µM. Take `Nc1nc(Nc2ccc3c(c2)OCCO3)n(C(=O)c2cccc(OCCC3OCCO3)c2)n1` [compound 209]: the IC50 under setting [5] was above 20 µM.

The compound `CC(=O)N(C)c1ccc(Nc2nc(N)n(C(=O)Nc3ccc4c(c3)OCO4)n2)cc1` [compound 175, 3-[4-(acetyl(methyl)amino)phenyl]amino-5-amino-N-(1,3-benzodioxol-5-yl)-1H-1,2,4-triazole-1-carboxamide] registered an IC50 under setting [6] of 1 to 10 µM.

For the compound `Nc1nc(Nc2ccccc2)nn1C(=O)c1cccc(N2CCOCC2)c1` [compound 336, 5-amino-1-(3-(morpholin-4-yl)phenyl)carbonyl-3-(phenylamino)-1H-1,2,4-triazole], under setting [1], the IC50 is 10 to 20 µM. The compound `COC(=O)COc1ccc(Nc2nc(N)n(C(=O)c3ccc(OC(C)C)cc3)n2)cc1` [compound 157, 5-amino-1-(4-(iso-propoxy)phenyl)carbonyl-3-[4-(methoxycarbonylmethoxy)phenylamino]-1H-1,2,4-triazole] gave an IC50 under setting [2] of 1 to 10 µM.

Compound `Nc1nc(Nc2ccc(OCCN3CCCC3)cc2)nn1C(=O)C1CC2CCC1C2` (stereo not drawn) [compound 200, 5-amino-1-[2-(bicyclo[2.2.1]heptane)carbonyl]-3-[4-[2-(pyrrolidin-1-yl)ethoxy]phenylamino]-1H-1,2,4-triazole] showed an IC50 under setting [4] above 20 µM.

Regarding `CC(=O)N(C)c1ccc(Nc2nc(N)n(C(=O)Nc3ccc(C(C)C)cc3)n2)cc1` [compound 179, 3-[4-(acetyl(methyl)amino)phenyl]amino-5-amino-N-(4-(iso-propyl)phenyl)-1H-1,2,4-triazole-1-carboxamide], the concentration for half-maximal inhibition (IC50) under setting [6] lay within 1 to 10 µM. Turning to `COc1cc(Nc2nc(N)n(C(=O)c3ccc(C(C)(C)C)cc3)n2)ccc1OCCN1CCCC1` [compound 315, 5-amino-1-(4-(tert-butyl)phenyl)carbonyl-3-[3-methoxy-4-[2-(pyrrolidin-1-yl)ethoxy]phenylamino]-1H-1,2,4-triazole], the IC50 under setting [1] was below 1 µM. For the compound `Cc1cccc(C(=O)n2nc(Nc3ccc4oc(C(=O)NCCO)cc4c3)nc2N)c1` [compound 208, 5-amino-3-[2-[2-hydroxyethylaminocarbonyl]benzofuran-5-yl]amino-1-(3-methylphenyl)carbonyl-1H-1,2,4-triazole], the IC50 under setting [3] lay in the range of 1 to 10 µM.
